Measurements from patent US20240181049A1, “HARNESSING THE POWER OF MICROBIOTA AND METABOLITES FOR THE TREATMENT OF CANCER” (UTI LIMITED PARTNERSHIP, priority 2019, published 2024).

Tests used:
T cells in the MLN = test: Th1 activation in vivo after ovalbumin/CpG immunization; parameters: species or system GF mice; settings: 300 mg/kg/BW i.p.; vs vehicle
Experimental: FIG. 5A-5L: Inosine promotes Th1 activation and anti-tumor immunity. (a) Schematic overview of experimental setup to assess the effect of inosine on Th1 activation in vivo. (b, c) Representative dot plots and quantification (left and right panel respectively) of T-bet^+IFN-γ^+CD3ε^+ (b) CD8^+ or (c) CD4^+ T cells in the MLN. (d) Schematic overview of experimental setup to assess the effect of inosine on anti-tumor immunity. Upon palpable tumors, mice were treated with 100 μg anti-CTLA-4 i.p. (5 times every 72 hours) and in some groups 20 μg CpG i.p. (5 times every 72 hours). In addition, inosine (300 mg/KG/BW) or PBS was given daily orally (O), through gavage or systemically (S) through i.p. injection. (e) Tumor weight and quantification of IFN-γ^+ cells amongst (f) CD4^+ or (g) CD8^+ cells are shown. (h). Schematic overview to assess the requirement of A2AR signaling for inosine-induced anti-tumor immunity. […] (j) Tumor weight and quantification of IFN-γ^+ in (k) CD8^+ or (l) CD4^+ cells in the tumor are shown. […]
To evaluate the effect of inosine on Th1 activation, mice received 30 μg CpG, […] EndoFit Ovalbumin (both Invivogen) and 2 μg OVA323-339 (Sigma) i.p. and 24 hours later mice received 300 mg/kg/BW inosine or PBS as a control through i.p. injection. T cell differentiation was assessed 48 hours later. […]

MC38-OVA cells = test: T cell-mediated killing of inosine-pretreated MC38-OVA cells; type: cell-based; settings: pretreatment of tumor cells prior to co-culture with activated tumor-specific T cells
Experimental: FIG. 17A-17B. […] (a) MC38 tumor cells were treated with the indicated doses of inosine in vitro for 72 hours. Cell death and survival was assessed through flow cytometry. (b) MC38 tumor cells expressing full length ovalbumin (MC38-OVA) were treated with the indicated doses of inosine in vitro for 72 hours. In parallel, OVA-specific naïve CD4 and CD8 T cells from spleens of OT-II and OT-I mice, respectively, were activated with anti-CD3/anti-CD28 beads and rmIL-2 (20 IU/ml) for 72 hours. Inosine was then washed away from conditioned MC38-OVA cells and fresh medium together with activated T cells were added (100,000 MC38-OVA cells+25,000 CD4 cells+25,000 CD8 cells). 72 hours later, cell death and survival of MC38-OVA cells was assessed through flow cytometry. Grey and black dash-dotted lines indicate MC38-OVA cell viability and death when co-cultured with naïve OVA-specific CD4 and CD8 T cells. Data are mean±SEM and pooled from two individual experiments. n=6 biological replicates/condition. #, & P<0.05, **, P<0.01; (**=0.0001 vs 10 mM, #0.001 vs 10 mM and & 1 vs 10 mM)

OC[C@H]1O[C@@H](n2cnc3c(O)ncnc32)[C@H](O)[C@@H]1O [inosine]
proportions of T-bet+, IFN-γ+ CD8+ and CD4+ T cells in the MLN (T cells in the MLN): increased
T cell-mediated killing of tumor cells (MC38-OVA cells): did not promote or inhibit T cell-mediated killing of tumor cells
